# Measured values taken from BindingDB's records for patent US11160797 (NOVARTIS AG, 2021).
# Target: T1, Activin receptor type-1 [172-499,R206H] (Homo sapiens, UniProt Q04771, R206H)
# T1 construct: 172-499
# Experiment: In Vitro Enzyme Inhibition Using a Biochemical Peptide Phosphorylation Assay- Caliper Assay
# T1 sequence (Q04771 172-499 R206H): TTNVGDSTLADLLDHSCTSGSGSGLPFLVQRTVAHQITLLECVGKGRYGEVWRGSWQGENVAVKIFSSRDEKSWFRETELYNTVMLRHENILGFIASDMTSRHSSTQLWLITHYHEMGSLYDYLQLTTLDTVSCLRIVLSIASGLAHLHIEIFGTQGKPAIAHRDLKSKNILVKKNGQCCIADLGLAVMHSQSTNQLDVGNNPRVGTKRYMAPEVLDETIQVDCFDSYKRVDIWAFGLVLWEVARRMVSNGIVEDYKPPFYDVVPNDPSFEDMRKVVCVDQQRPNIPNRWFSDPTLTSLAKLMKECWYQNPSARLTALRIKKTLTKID
smiles,measurement,value
"CC(C)CN1c2ccc(-c3cncc(-c4ccc(=O)n(C(C)C)c4)c3)cc2CS1(=O)=O [US11160797, Example 50]",IC50,140 nM
